Target: T1, Dopamine beta hydroxylase (Homo sapiens, UniProt P09172)
T1 construct: 125 μl of plasma; tissue Instituto Português do Sangue Transplantação; host or cells: human plasma from healthy donors
T1 sequence (P09172 40-617 limits assumed): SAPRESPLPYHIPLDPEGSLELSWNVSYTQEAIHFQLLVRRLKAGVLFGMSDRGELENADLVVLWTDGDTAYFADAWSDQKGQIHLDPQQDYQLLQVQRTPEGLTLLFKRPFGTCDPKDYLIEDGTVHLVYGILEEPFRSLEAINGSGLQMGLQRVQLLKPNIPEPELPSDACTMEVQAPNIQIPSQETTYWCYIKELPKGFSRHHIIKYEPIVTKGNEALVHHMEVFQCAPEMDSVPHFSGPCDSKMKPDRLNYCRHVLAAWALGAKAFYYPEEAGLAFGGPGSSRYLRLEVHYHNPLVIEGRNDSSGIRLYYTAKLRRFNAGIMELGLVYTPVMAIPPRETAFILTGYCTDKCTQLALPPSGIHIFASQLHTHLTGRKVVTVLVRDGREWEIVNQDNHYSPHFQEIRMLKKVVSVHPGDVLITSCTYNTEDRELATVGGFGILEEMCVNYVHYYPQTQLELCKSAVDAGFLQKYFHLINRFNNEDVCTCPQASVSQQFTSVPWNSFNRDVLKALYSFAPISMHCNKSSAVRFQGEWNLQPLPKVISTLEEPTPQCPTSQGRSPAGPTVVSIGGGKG
Test: Dopamine beta hydroxylase activity in human plasma
Type: biochemical
Conditions: for Plasma (0.01 μM), activity in % of control: inhibitor 0.01 μM; for Plasma (0.1 μM), activity in % of control: inhibitor 0.1 μM; for Plasma (1 μM), activity in % of control: inhibitor 1 μM
Method: Furthermore, the ability of a compound to inhibit DβH activity may be assessed in human plasma using the following assay. […]. Dopamine beta hydroxylase activity in human plasma was measured by the method of Nagatsu and Udenfriend (Nagatsu, T. and Udenfriend, S. “Photometric assay of dopamine-μ-hydroxylase activity in human blood.” Clin. Chem. 18(9) 980-983, 1972) with minor modifications. Catalase, N-ethylmaleimide, tyramine, disodium fumarate, pargyline, sodium acetate, ascorbic acid, copper sulfate and octopamine were obtained from Sigma Chemical Co., St. Louis, Mo. 63178. Human plasma samples were obtained from healthy donors (Instituto Português do Sangue Transplantação, Centro Sangue Transplantação, Porto, Portugal). From date of collection, plasma was stored at −80° C. until use. Test compounds were initially prepared in dimethyl sulfoxide at a concentration of 10 mM and diluted in dimethyl sulfoxide to the required concentrations. Test compounds were further diluted in ultrapure water to a concentration 20-fold to that of the final concentration to be tested. Final concentrations of test compounds were 10, 100 and 1000 nM. The various reagents used to make up the incubation buffer were premixed and consisted of the following components: sodium acetate buffer (1 M, pH 5.0, 18 ml), sodium fumarate (0.2 M, 4.5 ml), ascorbic acid (0.2 M, 4.5 ml, freshly prepared), pargyline (20 mM, freshly prepared, 4.5 ml), N-ethylmaleimide (0.2 M, 4.5 ml), catalase (10 000 U/ml, 9 ml), copper sulfate (20 μM, 4.5 ml) and 4.5 ultrapure water. The standard incubation mixture (total volume, 950 μl) contained: 50 μL of compound or vehicle (dimethyl sulfoxide 2%); 700 μL of incubation buffer; 125 μl of plasma (or saline for blank reaction or standard curve); 75 μl of saline. The reaction mixture was placed in water bath, shaking at 37° C. and pre-incubated for 10 minutes. Tyramine (0.5 M) was added and incubation proceeded for 45 minutes. The reaction contents were exposed to air. A sample of enzyme preparation (with 125 μl of plasma) that had been added perchloric acid 2 M at the end of the pre-incubation period was used as blank. A blank for each of the tested compounds was used. For octopamine standard curve, perchloric acid 2 M was replaced by increasing concentrations of octopamine prepared in perchloric acid 2 M (0.5, 1, 2.5, 5, 7.5, 10, 15, 20 μg/ml, final concentration). The incubation was stopped by adding 200 μl of 2 M molar perchloric acid, and the mixture was centrifuged at 9000 g for 5 min. The supernatant fluid (800 μL) was transferred to a column (SPE cartridge ISOLUTE SCX-3, 100 mg) and centrifuged at 150 g for 2 min. The column was washed two more times with 0.5 ml of ultrapure water by centrifuging at 150 g for 2 min. The adsorbed octopamine was eluted twice with 0.3 ml of 4 M ammonium hydroxide by centrifuging at 150 g for 2 min. Octopamine in the eluate was then converted to p-hydroxybenzaldehyde by adding 200 μl of sodium periodate (2%) and incubating for 6 min. Excess periodate was than reduced by adding 200 μl of sodium metabisulfite (10%). Absorbance was measured at […] in a 96-well plate by use of a SpectraMAX plus 384 (Molecular Devices) with software SOFTmax® PRO Software 5.3 spectrophotometer. Absorbance was linear with octopamine concentration from 0.5 to 20 μg/ml. Dopamine beta hydroxylase activity is determined as nmol of octopamine formed/ml of plasma/hour and effect of compounds is presented as % control.
Results are reported in the table below as activity in % of control at the inhibitor concentration tested.

Plasma (0.01 μM), activity in % of control | Plasma (0.1 μM), activity in % of control | Plasma (1 μM), activity in % of control | Compound
92.9 % of control | 43.7 % of control | – | Cn1c(CC(=O)NCC2CCCO2)c2n(c1=S)C[C@@H](c1c(F)c(F)cc(F)c1F)C2 (stereo in doubt) [Example 387, 2-((R)-2-methyl-6-(2,3,5,6-tetrafluorophenyl)-3-thioxo-2,5,6,7-tetrahydro-3H-pyrrolo[1,2-c]imidazol-1-yl)-N—(((S)-tetrahydrofuran-2-yl)methyl)acetamide]
83.8 % of control | 40.7 % of control | – | Cn1c(CC(=O)NCC2CCCO2)c2n(c1=S)C[C@@H](c1c(F)c(F)cc(F)c1F)C2 (stereo in doubt) [Example 391, 2-((R)-2-methyl-6-(2,3,5,6-tetrafluorophenyl)-3-thioxo-2,5,6,7-tetrahydro-3H-pyrrolo[1,2-c]imidazol-1-yl)-N—(((R)-tetrahydrofuran-2-yl)methyl)acetamide]
– | 30.8 % of control | 3.3 % of control | O=C(O)Cc1[nH]c(=S)n2c1C[C@@H](c1c(F)ccc(Br)c1F)C2 [Example 12, (S)-2-(6-(3-bromo-2,6-difluorophenyl)-3-thioxo-2,5,6,7-tetrahydro-3H-pyrrolo[1,2-c]imidazol-1-yl)acetic Acid]
– | 68.0 % of control | 13.9 % of control | O=C(O)Cc1[nH]c(=S)n2c1C[C@H](c1c(F)ccc(Br)c1F)C2 [Example 13, (R)-2-(6-(3-bromo-2,6-difluorophenyl)-3-thioxo-2,5,6,7-tetrahydro-3H-pyrrolo[1,2-c]imidazol-1-yl)acetic Acid]
– | 92.8 % of control | 45.6 % of control | O=C(O)Cc1[nH]c(=S)n2c1C[C@H](c1cc(F)ccc1F)C2 [Example 14, (R)-2-(6-(2,5-difluorophenyl)-3-thioxo-2,5,6,7-tetrahydro-3H-pyrrolo[1,2-c]imidazol-1-yl)acetic Acid]
– | 66.0 % of control | 11.4 % of control | O=C(O)Cc1[nH]c(=S)n2c1C[C@H](c1c(F)c(F)cc(F)c1F)C2 [Example 15, (R)-2-(6-(2,3,5,6-tetrafluorophenyl)-3-thioxo-2,5,6,7-tetrahydro-3H-pyrrolo[1,2-c]imidazol-1-yl)acetic Acid]
– | 72.9 % of control | 12.7 % of control | O=C(O)Cc1[nH]c(=S)n2c1C[C@@H](c1cc(Br)ccc1F)C2 [Example 16, (S)-2-(6-(5-bromo-2-fluorophenyl)-3-thioxo-2,5,6,7-tetrahydro-3H-pyrrolo[1,2-c]imidazol-1-yl)acetic Acid]
– | 79.0 % of control | 32.2 % of control | O=C(O)Cc1[nH]c(=S)n2c1C[C@H](c1cc(Cl)ccc1F)C2 [Example 17, (R)-2-(6-(5-chloro-2-fluorophenyl)-3-thioxo-2,5,6,7-tetrahydro-3H-pyrrolo[1,2-c]imidazol-1-yl)acetic Acid]
– | 81.0 % of control | 19.8 % of control | O=C(O)Cc1[nH]c(=S)n2c1C[C@H](c1c(F)cccc1F)C2 [Example 18, (R)-2-(6-(2,6-difluorophenyl)-3-thioxo-2,5,6,7-tetrahydro-3H-pyrrolo[1,2-c]imidazol-1-yl)acetic Acid]
– | 31.0 % of control | 2.6 % of control | CS(=O)(=O)NC(=O)Cc1[nH]c(=S)n2c1C[C@@H](c1c(F)ccc(Br)c1F)C2 [Example 20, (S)-2-(6-(3-bromo-2,6-difluorophenyl)-3-thioxo-2,5,6,7-tetrahydro-3H-pyrrolo[1,2-c]imidazol-1-yl)-N-(methylsulfonyl)acetamide]
– | 69.2 % of control | 16.7 % of control | CS(=O)(=O)NC(=O)Cc1[nH]c(=S)n2c1C[C@@H](c1cc(Br)ccc1F)C2 [Example 21, (S)-2-(6-(5-bromo-2-fluorophenyl)-3-thioxo-2,5,6,7-tetrahydro-3H-pyrrolo[1,2-c]imidazol-1-yl)-N-(methylsulfonyl)acetamide]
– | 100.2 % of control | 45.6 % of control | CS(=O)(=O)NC(=O)Cc1[nH]c(=S)n2c1C[C@H](c1cc(F)ccc1F)C2 [Example 24, (R)-2-(6-(2,5-difluorophenyl)-3-thioxo-2,5,6,7-tetrahydro-3H-pyrrolo[1,2-c]imidazol-1-yl)-N-(methylsulfonyl)acetamide]
– | 71.3 % of control | 17.6 % of control | CCOC(=O)CNC(=O)Cc1[nH]c(=S)n2c1C[C@H](c1c(F)c(F)cc(F)c1F)C2 [Example 25, Ethyl (R)-(2-(6-(2,3,5,6-tetrafluorophenyl)-3-thioxo-2,5,6,7-tetrahydro-3H-pyrrolo[1,2-c]imidazol-1-yl)acetyl)glycinate]
– | 64.0 % of control | 18.2 % of control | C[C@H](NC(=O)Cc1[nH]c(=S)n2c1C[C@H](c1c(F)c(F)cc(F)c1F)C2)C(N)=O [Example 26, (S)-2-(2-((R)-6-(2,3,5,6-tetrafluorophenyl)-3-thioxo-2,5,6,7-tetrahydro-3H-pyrrolo[1,2-c]imidazol-1-yl)acetamido)propanamide]
– | 51.6 % of control | 7.6 % of control | N#CCNC(=O)Cc1[nH]c(=S)n2c1C[C@H](c1c(F)c(F)cc(F)c1F)C2 [Example 27, (R)—N-(cyanomethyl)-2-(6-(2,3,5,6-tetrafluorophenyl)-3-thioxo-2,5,6,7-tetrahydro-3H-pyrrolo[1,2-c]imidazol-1-yl)acetamide]

Compound | Plasma (0.01 μM), activity in % of control | Plasma (0.1 μM), activity in % of control | Plasma (1 μM), activity in % of control
O=C(Cc1[nH]c(=S)n2c1C[C@H](c1c(F)ccc(Br)c1F)C2)NC1CCOC1=O (stereo partly drawn) [Example 22, 2-((R)-6-(3-bromo-2,6-difluorophenyl)-3-thioxo-2,5,6,7-tetrahydro-3H-pyrrolo[1,2-c]imidazol-1-yl)-N-(2-oxotetrahydrofuran-3-yl)acetamide] | – | 45.1 % of control | 4.4 % of control
CS(=O)(=O)NC(=O)Cc1[nH]c(=S)n2c1C[C@H](c1c(F)c(F)cc(F)c1F)C2 [Example 23, (R)—N-(methylsulfonyl)-2-(6-(2,3,5,6-tetrafluorophenyl)-3-thioxo-3,5,6,7-tetrahydro-2H-pyrrolo[1,2-c]imidazol-1-yl)acetamide] | – | 56.6 % of control | 8.8 % of control
